system: not listed separately; assay: (§1) Hydrolysis half life using immobilized penicillin-G acylase; assay type: ADME; details: not given

| Structure (SMILES) | T1/2 [min] |
| --- | --- |
| CC1=C(C(=O)O)N2C(=O)[C@@H](NC(=O)Cc3ccccc3)[C@H]2[S+]([O-])C1 (stereo in doubt; form 1) | 200 |
| CC1=C(C(=O)O)N2C(=O)[C@@H](NC(=O)Cc3ccccc3)[C@H]2[S+]([O-])C1 (stereo in doubt; form 2) | 33 |

system: penicillin-G acylase; assay: as §1; assay type: ADME; details: immobilized penicillin-G acylase

| Structure (SMILES) | half-life [min] |
| --- | --- |
| CC1=C(C(=O)O)N2C(=O)[C@@H](NC=O)[C@H]2[S+]([O-])C1 (some centres not stated) | > 10000 |
| CC1=C(C(=O)O)N2C(=O)[C@@H](NC(=O)Cc3ccsc3)[C@H]2SC1 | 65 |
| CC1=C(C(=O)O)N2C(=O)[C@@H](NC(=O)C(Br)c3ccccc3)[C@H]2[S+]([O-])C1 (some centres not stated) | 370 |
| CC1=C(C(=O)O)N2C(=O)[C@@H](NC(=O)Cc3ccccc3)[C@H]2SC1 | 45 |
| C=CC1=C(C(=O)O)N2C(=O)[C@@H](NC(=O)Cc3ccccc3)[C@H]2SC1 | 55 |
| CC1(C)[C@H](C(=O)O)N2C(=O)[C@@H](NC(=O)Cc3ccccc3)[C@H]2S1(=O)=O | 50 |
| CC1(C)S[C@@H]2[C@H](NC(=O)C(Br)c3ccccc3)C(=O)N2[C@H]1C(=O)O (some centres not stated) | 80 |
| CC1=C(C(=O)O)N2C(=O)[C@@H](NC(=O)c3ccccc3)[C@H]2SC1 | > 10000 |
| CCC(C(=O)N[C@@H]1C(=O)N2[C@@H]1SC(C)(C)[C@@H]2C(=O)O)c1ccccc1 (some centres not stated) | 3400 |
| Cn1nnnc1SCC1=C(C(=O)O)N2C(=O)[C@@H](NC(=O)Cc3ccccc3)[C@H]2SC1 | 50 |
| C/C=C/C1=C(C(=O)O)N2C(=O)[C@@H](NC(=O)Cc3ccccc3)[C@H]2SC1 | 50 |
| CC1(C)[C@H](C(=O)O)N2C(=O)[C@@H](NC(=O)Cc3ccccc3)[C@H]2[S+]1[O-] (some centres not stated) | 90 |
| CC1(C)S[C@@H]2[C@H](NC(=O)C(Cc3ccccc3)c3ccccc3)C(=O)N2[C@H]1C(=O)O (some centres not stated) | 7000 |
| CC1=C(C(=O)O)N2C(=O)[C@@H](NC(=O)COc3ccccc3)[C@H]2[S+]([O-])C1 (some centres not stated) | 1420 |
| CC1=C(C(=O)O)N2C(=O)[C@@H](NC(=O)C(O)c3ccccc3)[C@H]2SC1 (some centres not stated) | 5 |
| CC1=C(C(=O)O)N2C(=O)[C@@H](NC(=O)COc3ccccc3)[C@H]2SC1 | 1280 |
| O=C(Cc1ccccc1)N[C@@H]1C(=O)N2C(C(=O)O)=CCS[C@H]12 | 25 |
| CC1(C)S[C@@H]2[C@H](NC(=O)[C@H](N)c3ccc(O)cc3)C(=O)N2[C@H]1C(=O)O [AMOXICILLIN] | 12 |
| CC1(C)S[C@@H]2[C@H](NC(=O)[C@H](N)c3ccccc3)C(=O)N2[C@H]1C(=O)O [AMPICILLIN] | 5 |
| CC1(C)S[C@@H]2[C@H](NC(=O)Cc3ccccc3)C(=O)N2[C@H]1C(=O)O [PENICILLIN G] | 25 |

From ChEMBL document CHEMBL1127994, “Substrate specificity of immobilized penicillin-G acylase towards penicillin and cephalosporin derivatives was studied. The phenylacetyl moiety can be altered at the -position with several small substituents. Depending on polarity and size of the substituent, enzyme activity decreases or increases. …” (Bioorg Med Chem Lett, 1994)
